Assay results reported in patent publication US20230143612A1 (Arbutus Biopharma Corporation, priority 2020, published 2023).

Target: PD-L1 His protein / PD-1 Fc protein (Homo sapiens, UniProt Q9NZQ7)
Assay: HTRF Assay (PD-1/PD-L1 interaction)
Type: binding
Conditions: PD-L1 His 6 nM, PD-1 Fc 6 nM
Procedure, shortened: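 HTRF: PD-L1 His (6 nM final), compound (3-fold dilutions, 20 μM to 0.001 μM final) and PD-1 Fc (6 nM final) preincubated 15 min at room temperature. Anti-human IgG-XL665 and anti-6HIS Tb cryptate (mixed at 6.7 nM and 0.35 nM) then added for 1 h at room temperature before reading.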

PD-L1 His protein / PD-1 Fc protein, sequence (Q9NZQ7 19-238 limits assumed): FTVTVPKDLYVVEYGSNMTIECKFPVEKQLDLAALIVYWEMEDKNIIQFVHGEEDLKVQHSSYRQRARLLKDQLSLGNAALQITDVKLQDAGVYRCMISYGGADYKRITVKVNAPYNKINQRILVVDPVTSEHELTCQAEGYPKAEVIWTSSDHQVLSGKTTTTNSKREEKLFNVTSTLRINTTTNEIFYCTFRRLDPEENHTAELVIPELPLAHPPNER

Row | SMILES | IC50
1 | COc1nc(-c2cccc(-c3cccc(-c4ccc5nc(CN[C@H]6C[C@H](O)C6)n(C)c5n4)c3Cl)c2Cl)ccc1CN[C@H]1C[C@H](O)C1 [Example 315] | 0.4 nM
2 | COC(=O)C1CN(Cc2cnc3cc(-c4cccc(-c5cccc(-c6ccc(CNC[C@@H]7CCC(=O)N7)c(OC)n6)c5Cl)c4Cl)cc(C)n3c2=O)C1 [Example 291, (S)-Methyl 1-((8-(2,2′-dichloro-3′-(6-methoxy-5-((((5-oxopyrrolidin-2-yl)methyl)amino)methyl)pyridin-2-yl)-[1,1′-biphenyl]-3-yl)-6-methyl-4-oxo-4H-pyrido[1,2-a]pyrimidin-3-yl)methyl)azetidine-3-carboxylate] | 0.1 nM
3 | Cc1c(COc2cc(OCc3cncc(C#N)c3)c(CNCCO)cc2Cl)cccc1-c1cccc(-c2ccn3c(=O)c(CNCCO)cnc3c2)c1C [Example 3, 5-((4-Chloro-2-(((2-hydroxyethyl)amino)methyl)-5-((3′-(3-(((2-hydroxyethyl)amino)methyl)-4-oxo-4H-pyrido[1,2-a]pyrimidin-8-yl)-2,2′-dimethyl-[1,1′-biphenyl]-3-yl)methoxy)phenoxy)methyl)nicotinonitrile] | 1.2 nM
4 | COc1nc(-c2cccc(-c3cccc(-c4cc(C)n5c(=O)c(CNCCO)cnc5c4)c3Cl)c2Cl)ccc1CNC[C@@H]1CCC(=O)N1 [Example 308, (S)-8-(2,2′-Dichloro-3′-(6-methoxy-5-((((5-oxopyrrolidin-2-yl)methyl)amino)methyl)pyridin-2-yl)-[1,1′-biphenyl]-3-yl)-3-(((2-hydroxyethyl)amino)methyl)-6-methyl-4H-pyrido[1,2-a]pyrimidin-4-one] | 22 nM
5 | Cc1c(-c2ccn3c(=O)c(CNCCO)cnc3c2)cccc1-c1cccc(COc2cc(OCc3cncc(C#N)c3)c(CNCCO)cc2Cl)c1C#N [Example 16, 5-((4-Chloro-5-((2-cyano-3′-(3-(((2-hydroxyethyl)amino)methyl)-4-oxo-4H-pyrido[1,2-a]pyrimidin-8-yl)-2′-methyl-[1,1′-biphenyl]-3-yl)methoxy)-2-(((2-hydroxyethyl)amino)methyl)phenoxy)methyl)nicotinonitrile] | 0.7 nM
6 | COc1nc(-c2cccc(-c3cccc(-c4ccn5c(=O)cc(CN[C@H]6C[C@](C)(O)C6)nc5c4)c3Cl)c2Cl)ccc1CNC[C@@H]1CCC(=O)N1 [Example 376, 8-(2,2′-Dichloro-3′-(6-methoxy-5-(((((S)-5-oxopyrrolidin-2-yl)methyl)amino)methyl)pyridin-2-yl)-[1,1′-biphenyl]-3-yl)-2-((((1r,3r)-3-hydroxy-3-methylcyclobutyl)amino)methyl)-4H-pyrido[1,2-a]pyrimidin-4-one] | 0.7 nM
7 | COc1nc(-c2cccc(-c3cccc(-c4ccc5nc(CNC[C@@H]6CCC(=O)N6)n(C)c5n4)c3Cl)c2Cl)ccc1CNC[C@@H]1CCC(=O)N1 [Example 314, (S)-5-((((6-(2,2′-Dichloro-3′-(3-methyl-2-(((((S)-5-oxopyrrolidin-2-yl)methyl)amino)methyl)-3H-imidazo[4,5-b]pyridin-5-yl)-[1,1′-biphenyl]-3-yl)-2-methoxypyridin-3-yl)methyl)amino)methyl)pyrrolidin-2-one] | 3.9 nM
8 | COc1nc(-c2cccc(-c3cccc(-c4ccn5c(=O)c(CNC[C@H]6CNC(=O)C6)cnc5c4)c3Cl)c2Cl)ccc1CNC[C@@H]1CCC(=O)N1 [Example 284, 8-(2,2′-Dichloro-3′-(6-methoxy-5-(((((S)-5-oxopyrrolidin-2-yl)methyl)-amino)methyl)-pyridin-2-yl)-[1,1′-biphenyl]-3-yl)-3-(((((S)-5-oxopyrrolidin-3-yl)methyl)amino)methyl)-4H-pyrido[1,2-a]pyrimidin-4-one] | 0.1 nM
9 | COc1nc(-c2cccc(-c3cccc(-c4ccc5c(Cl)c(CNC[C@@H]6CCC(=O)N6)[nH]c5n4)c3Cl)c2Cl)ccc1CNC[C@@H]1CCC(=O)N1 [Example 386, (S)-5-((((3-Chloro-6-(2,2′-dichloro-3′-(6-methoxy-5-(((((S)-5-oxopyrrolidin-2-yl)methyl)-amino)methyl)-pyridin-2-yl)-[1,1′-biphenyl]-3-yl)-1H-pyrrolo[2,3-b]-pyridin-2-yl)methyl)-amino)methyl)-pyrrolidin-2-one] | 28 nM
10 | COc1nc(-c2cccc(-c3cccc(-c4nc5c(c(OC)n4)CN(C[C@@H]4CCC(=O)N4)CC5)c3Cl)c2Cl)ccc1CNC[C@@H]1CCC(=O)N1 [Example 471, (S)-5-((((6-(2,2′-Dichloro-3′-(4-methoxy-6-(((S)-5-oxopyrrolidin-2-yl)methyl)-5,6,7,8-tetrahydropyrido[4,3-d]pyrimidin-2-yl)-[1,1′-biphenyl]-3-yl)-2-methoxypyridin-3-yl)methyl)amino)methyl)pyrrolidin-2-one] | 0.1 nM
11 | Cc1c(COc2cc(OCc3cncc(C#N)c3)c(CNCCO)cc2Cl)cccc1-c1cccc(-n2ccc(CNCCO)cc2=O)c1C [Example 23, 5-((4-Chloro-2-(((2-hydroxyethyl)amino)methyl)-5-((3′-(4-(((2-hydroxyethyl)amino)methyl)-2-oxopyridin-1(2H)-yl)-2,2′-dimethyl-[1,1′-biphenyl]-3-yl)methoxy)phenoxy)methyl)nicotinonitrile] | 33 nM
12 | COc1nc(-c2cccc(-c3cccc(-c4ccc5nn(CCCN6C(=O)c7ccccc7C6=O)c(=O)n5c4)c3Cl)c2Cl)ccc1CNC[C@@H]1CCC(=O)N1 [Example 391, (S)-2-(3-(6-(2,2′-Dichloro-3′-(6-methoxy-5-((((5-oxopyrrolidin-2-yl)methyl)amino)methyl)pyridin-2-yl)-[1,1′-biphenyl]-3-yl)-3-oxo-[1,2,4]triazolo[4,3-a]pyridin-2(3H)-yl)propyl)isoindoline-1,3-dione] | 65 nM
13 | CNC(=O)CN(C)Cc1cnc2cc(-c3cccc(-c4cccc(-c5ccc(CNC[C@@H]6CCC(=O)N6)c(OC)n5)c4Cl)c3Cl)ccn2c1=O [Example 200, (S)-2-(((8-(2,2′-Dichloro-3′-(6-methoxy-5-((((5-oxopyrrolidin-2-yl)methyl)amino)methyl)pyridin-2-yl)-[1,1′-biphenyl]-3-yl)-4-oxo-4H-pyrido[1,2-a]pyrimidin-3-yl)methyl)(methyl)amino)-N-methylacetamide] | 0.1 nM
14 | COc1nc(-c2cccc(-c3cccc(N4Cc5ccc(CNC[C@@H]6CCC(=O)N6)cc5C4=O)c3Cl)c2Cl)ccc1CNC[C@@H]1CCC(=O)N1 [Example 483, 2-(2,2′-Dichloro-3′-(6-methoxy-5-(((((S)-5-oxopyrrolidin-2-yl)methyl)amino)methyl)pyridin-2-yl)-[1,1′-biphenyl]-3-yl)-6-(((((S)-5-oxopyrrolidin-2-yl)methyl)amino)methyl)isoindolin-1-one] | 0.1 nM
15 | COc1nc(-c2cccc(-c3cccc(-c4ccn5c(=O)c(CN6CCC[C@H](C(=O)O)C6)cnc5c4)c3Cl)c2Cl)ccc1CNC[C@@H]1CCC(=O)N1 [Example 130, (S)-1-((8-(2,2′-Dichloro-3′-(6-methoxy-5-(((((S)-5-oxopyrrolidin-2-yl)methyl)amino)methyl)pyridin-2-yl)-[1,1′-biphenyl]-3-yl)-4-oxo-4H-pyrido[1,2-a]pyrimidin-3-yl)methyl)piperidine-3-carboxylic acid] | 0.3 nM
